The target of one assay is T1, huFAP (Homo sapiens, UniProt Q12884).
T1 sequence (Q12884 1-760): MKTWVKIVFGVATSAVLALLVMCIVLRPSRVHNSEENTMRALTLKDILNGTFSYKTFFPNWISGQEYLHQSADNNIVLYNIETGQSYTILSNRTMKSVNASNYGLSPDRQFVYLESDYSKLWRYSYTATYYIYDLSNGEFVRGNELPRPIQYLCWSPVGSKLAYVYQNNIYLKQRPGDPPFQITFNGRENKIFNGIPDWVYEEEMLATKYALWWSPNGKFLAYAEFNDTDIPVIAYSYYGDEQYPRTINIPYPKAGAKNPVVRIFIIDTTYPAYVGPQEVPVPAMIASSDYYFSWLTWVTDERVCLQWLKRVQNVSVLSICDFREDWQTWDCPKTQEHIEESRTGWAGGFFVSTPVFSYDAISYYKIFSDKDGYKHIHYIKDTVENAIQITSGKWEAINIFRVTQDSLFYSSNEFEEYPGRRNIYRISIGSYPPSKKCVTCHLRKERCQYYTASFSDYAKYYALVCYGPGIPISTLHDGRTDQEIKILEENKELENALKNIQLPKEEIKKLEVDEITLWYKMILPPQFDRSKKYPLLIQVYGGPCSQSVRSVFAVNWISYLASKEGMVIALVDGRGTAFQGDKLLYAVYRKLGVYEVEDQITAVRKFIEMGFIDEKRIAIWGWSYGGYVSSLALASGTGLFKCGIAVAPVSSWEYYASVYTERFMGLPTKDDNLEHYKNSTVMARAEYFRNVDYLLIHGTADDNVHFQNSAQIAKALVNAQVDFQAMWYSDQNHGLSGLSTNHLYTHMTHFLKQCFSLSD
The experiment in a line: Recombinant enzymatic inhibition assay, huFAP (Z-Gly-Pro-AMC). The class given is biochemical. Particulars: n = 3, picture: nM ± 95% CI. Here is the method: (§1) All enzymatic assays were performed in black 384-well plates, and enzymatic activity was measured on a microplate reader, monitoring the fluorescence at λEX 350 nm/λEM 485 nm. […] Val-boroPro (10^− 4 M) and assay buffer served as a positive and negative control, respectively. To measure inhibition of PREP, 50 µL of the reaction mixture containing 1 µM Z-Gly-Pro-AMC and 10 ng PREP (R&D Systems; Minneapolis, MN, USA) were used. The enzymatic assay of DPP4 contained substrate (100 µM), DPP4 (Abcam; Cambridge, UK) (10 nM), assay buffer, and increasing concentrations of the inhibitors (10^− 10 M to 10^− 4 M). Sitagliptin (10^− 4 M) and assay buffer were used as a positive and negative control, respectively. H-Gly-Pro-AMC (100 µM) in assay buffer was used as a baseline control. The plates were analyzed in a Hidex Sense Microplate reader (Hidex; Turku, Finland) at 37 °C under dark conditions for 1 h (huFAP), 2 h (muFAP), or 30 min (PREP, DPP4). For all assays, the components were kept on ice before plating.
(§2) All statistical analyses were performed with GraphPad Prism version 9.0 (San Diego, California USA). All IC50 values were determined using a non-linear regression Log(inhibitor) vs. response analysis with variable slope (four parameters). For the in vivo results outliers were identified by a ROUT test (Q = 1%) and excluded. Next, a two-tailed student’s t-test was performed (*p < 0.05, **p < 0.01, ***p < 0.001). All experiments were performed in triplicate and repeated at least three times.

The target in assay [1] is T2, prolyl oligopeptidase (PREP) (Homo sapiens, UniProt P48147).
T2 construct: purchased R&D Systems
T2 sequence (P48147 1-710): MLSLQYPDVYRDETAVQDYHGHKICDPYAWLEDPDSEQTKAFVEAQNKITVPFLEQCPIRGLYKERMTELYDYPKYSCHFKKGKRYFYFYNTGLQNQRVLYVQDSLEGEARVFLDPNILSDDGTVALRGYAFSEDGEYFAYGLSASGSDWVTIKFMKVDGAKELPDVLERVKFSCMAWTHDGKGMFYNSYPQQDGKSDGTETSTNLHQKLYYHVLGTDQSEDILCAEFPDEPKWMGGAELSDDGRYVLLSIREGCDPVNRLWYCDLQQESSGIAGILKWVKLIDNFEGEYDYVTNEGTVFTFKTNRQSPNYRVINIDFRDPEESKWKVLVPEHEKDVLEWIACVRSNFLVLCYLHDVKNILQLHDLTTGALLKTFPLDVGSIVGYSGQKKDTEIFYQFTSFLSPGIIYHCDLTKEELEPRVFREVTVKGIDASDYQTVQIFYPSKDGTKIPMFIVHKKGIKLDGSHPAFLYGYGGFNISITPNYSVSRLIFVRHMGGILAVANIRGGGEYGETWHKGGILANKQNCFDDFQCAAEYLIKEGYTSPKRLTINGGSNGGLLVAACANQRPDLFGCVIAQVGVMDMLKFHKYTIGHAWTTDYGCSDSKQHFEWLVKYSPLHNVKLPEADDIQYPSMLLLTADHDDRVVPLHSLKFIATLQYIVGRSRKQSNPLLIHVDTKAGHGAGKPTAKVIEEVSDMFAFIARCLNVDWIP
The experiment in a line: Enzymatic inhibition assay, PREP. Particulars: for IC50: recombinant PREP, n = 3, picture: nM ± 95% CI; for SI PREP/huFAP: selectivity index, IC50 PREP / IC50 huFAP. The class given is biochemical. Here is the method: as §1, §2

Usually IC50 stands for the concentration that inhibits the measured activity by half. On to `CN(CCCN1CCN(C(=O)CN2CCN(CC(=O)O)CCN(CC(=O)O)CCN(CC(=O)O)CC2)CC1)c1ccc2nccc(C(=O)NCC(=O)N3CC(F)(F)C[C@H]3C#N)c2c1` [FAPI-46, reference compound], for which the IC50 at huFAP worked out at 3.87 ± 2.7 nM; in assay [1], 3480 ± 172 nM.

Take `N#C[C@@H]1CC(F)(F)CN1C(=O)CNC(=O)c1ccnc2c(OCCCNC(=O)CN3CCN(CC(=O)O)CCN(CC(=O)O)CCN(CC(=O)O)CC3)cccc12` [eFAP-6, (S)-2,2',2''-(10-(2-((3-((4-((2-(2-cyano-4,4-difluoropyrrolidin-1-yl)-2-oxoethyl)carbamoyl)quinolin-8-yl)oxy)propyl)amino)-2-oxoethyl)-1,4,7,10-tetraazacyclododecane-1,4,7-triyl)triacetic acid]: the IC50 on huFAP worked out at 1.16 ± 0.04 nM. Also, in assay [1], the concentration for half-maximal inhibition (IC50) came out at 161 ± 53.6 nM and the “SI PREP/huFAP” value is 138.6.

Consider `CN1/C(=C/C=C/C=C/C2=[N+](CCCCCC(=O)NCCCOc3cccc4c(C(=O)NCC(=O)N5CC(F)(F)C[C@H]5C#N)ccnc34)c3ccc(S(=O)(=O)[O-])cc3C2(C)C)C(C)(C)c2cc(S(=O)(=O)O)ccc21` [eFAP-7, 1-(6-((3-((4-((2-((S)-2-cyano-4,4-difluoropyrrolidin-1-yl)-2-oxoethyl)carbamoyl)quinolin-8-yl)oxy)propyl)amino)-6-oxohexyl)-3,3-dimethyl-5-sulfo-2-((1E,3E)-5-((E)-1,3,3-trimethyl-5-sulfoindolin-2-ylidene)penta-1,3-dien-1-yl)-3H-indol-1-ium], for which the IC50 on huFAP was 4.23 ± 0.5 nM. Also, in assay [1], the IC50 was determined as 475 ± 104 nM and the “SI PREP/huFAP” value is given as 112.3.
